Laboratory results taken from patent US20220380314A1, “SUBSTITUTED, SATURATED AND UNSATURATED N-HETEROCYCLIC CARBOXAMIDES AND RELATED COMPOUNDS FOR THEIR USE IN THE TREATMENT OF MEDICAL DISORDERS” (Bial - R&D Investments, S.A., priority 2019, published 2022).
pIC50: −log10 of the molar value. Counter-ions that a name gives are not always drawn.

What follows are molecules tested against T1, acid ceramidase (hACR) (Homo sapiens, UniProt Q13510) (assay: Acid ceramidase inhibition, biochemical fluorescent assay with cell lysates overexpressing acid ceramidase, substrate Rbm14-12). Conditions: cell lysates overexpressing acid ceramidase; 1 hr preincubation at RT; pH 4.5; substrate Rbm14-12 6.3 μM; read-out: hACR IC50.
T1 construct: expressed in transfected cells; cell lysate used
T1 sequence (Q13510 143-395 limits assumed): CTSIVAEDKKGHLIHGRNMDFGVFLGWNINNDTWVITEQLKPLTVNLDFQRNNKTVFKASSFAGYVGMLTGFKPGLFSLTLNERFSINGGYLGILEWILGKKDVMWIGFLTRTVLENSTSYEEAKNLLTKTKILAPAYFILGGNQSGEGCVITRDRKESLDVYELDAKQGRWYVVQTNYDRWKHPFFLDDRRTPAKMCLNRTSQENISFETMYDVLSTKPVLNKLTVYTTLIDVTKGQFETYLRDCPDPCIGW
T1 sequence (Q13510 22-142 limits assumed): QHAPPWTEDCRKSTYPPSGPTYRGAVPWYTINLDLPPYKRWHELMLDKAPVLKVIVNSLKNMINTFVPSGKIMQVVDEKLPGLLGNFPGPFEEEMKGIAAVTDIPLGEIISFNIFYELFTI
Procedure: The ability of exemplary compounds to inhibit acid ceramidase was measured.
Cell lysates overexpressing acid ceramidase were used as the enzyme source for compound potency determination in a biochemical fluorescent assay. Briefly, compounds were preincubated with 10 µg protein of cell lysates in a dose-response manner for 1 hr at RT in the assay buffer containing 25 mM NaAC and 100 mM NaCl, pH 4.5. The reaction was initiated by the addition of substrate Rbm14-12 at a final concentration of 6.3 μM. The reaction was run at RT for 1 hr before it was stopped by the addition of the stopping buffer containing 20% methanol (v/v), 1 mg/ml NaIO4, 0.1 M glycine, pH 10.6. The samples were incubated with the stopping buffer at RT for 1 hr to allow the fluorescent product to be formed. Finally the plate was read with SpectraMax i3 plate reader (Molecular Devices) at ex360 nm and em446 nm. Data were collected and used to determine the IC50 values of compounds by curve fitting to the four-parameter inhibition equation.
The symbol “A” indicates inhibition of less than 0.2 μM; the symbol “B” indicates inhibition in the range of 0.2 μM up to 1 μM; and the symbol “C” indicates inhibition of greater than 1 μM.

Structure (SMILES)	pIC50
CC1(C)CN(c2ccccc2)CCN1C(=O)NCCCCc1ccccc1 [Example 103, 2,2-Dimethyl-4-phenyl-N-(4-phenylbutyl)piperazine-1-carboxamide]	> 6.70
CC1CN(C(=O)NCCCCc2ccccc2)C(C)(C)CC1=O (stereo not drawn) [Example 119, 2,2,5-Trimethyl-4-oxo-N-(4-phenylbutyl)piperidine-1-carboxamide]	< 6.00
CC1(C)CN(c2cncnc2)CCN1C(=O)NCCCCc1ccccc1 [Example 105, 2,2-Dimethyl-N-(4-phenylbutyl)-4-pyrimidin-5-yl-piperazine-1-carboxamide]	< 6.00
CCCCCNC(=O)N1C(c2ccccc2C)COCC1(C)C (stereo not drawn) [Example 158, 3,3-Dimethyl-5-(o-tolyl)-N-pentylmorpholine-4-carboxamide]	> 6.70
CC1(C)CCc2c(-c3ccccn3)cccc2N1C(=O)NCCc1ccccc1 [Example 5, 2,2-Dimethyl-N-phenethyl-5-(pyridin-2-yl)-3,4-dihydroquinoline-1(2H)-carboxamide]	< 6.00
CCCCCNC(=O)N1CCC(N2CCCCC2)C[C@@H]1C (mixture of isomers) [Example 97, (2S)-Methyl-N-pentyl-4-(1-piperidyl)piperidine-1-carboxamide]	6.00 to 6.70
CN1CC(c2ccc(F)cc2)N(C(=O)NCCOCC2CC2)C(C)(C)C1 (stereo not drawn) [Example 168, N-[2-(Cyclopropylmethoxy)ethyl]-6-(4-fluorophenyl)-2,2,4-trimethylpiperazine-1-carboxamide hydrochloride]	> 6.70
CCCCCNC(=O)N1C(c2ccc(F)cc2)COCC1(C)C (single isomer, unassigned) [Example 139, (5S) or (5R)-5-(4-fluorophenyl)-3,3-dimethyl-N-pentylmorpholine-4-carboxamide]	> 6.70
CC(C)CNC(=O)N1C(c2ccc(F)cc2)COCC1(C)C (stereo not drawn) [Example 140, 5-(4-Fluorophenyl)-N-isobutyl-3,3-dimethylmorpholine-4-carboxamide]	> 6.70
CC1(C)CN(C2CC2)CC(c2ccccc2)N1C(=O)NCCCCc1ccccc1 (stereo not drawn) [Example 169, 4-Cyclopropyl-2,2-dimethyl-6-phenyl-N-(4-phenylbutyl)piperazine-1-carboxamide]	> 6.70
CC1(C)CN(c2ccccn2)CCN1C(=O)NCCCCc1ccccc1 [Example 104, 2,2-Dimethyl-N-(4-phenylbutyl)-4-(2-pyridyl)piperazine-1-carboxamide]	< 6.00
CC1(C)COCC(c2ccc(F)cc2)N1C(=O)NCCCCc1ccccc1 (stereo not drawn) [Example 136, 5-(4-Fluorophenyl)-3,3-dimethyl-N-(4-phenylbutyl)morpholine-4-carboxamide]	> 6.70
CC1(C)CC(N2CCCCC2)/C(=C/c2ccccc2)CN1C(=O)NCCCCc1ccccc1 (stereo not drawn) [Example 128, (5E)-5-Benzylidene-2,2-dimethyl-N-(4-phenylbutyl)-4-(1-piperidyl)piperidine-1-carboxamide]	> 6.70
CCCCCCCNC(=O)N1CCC(N2CCCCC2)CC1(C)C (stereo not drawn) [Example 85, N-Heptyl-2,2-dimethyl-4-(1-piperidyl)piperidine-1-carboxamide]	< 6.00
CCCCCNC(=O)N1CCC(N2CCCCC2)CC1(C)C (stereo not drawn) [Example 84, 2,2-Dimethyl-N-pentyl-4-(1-piperidyl)piperidine-1-carboxamide]	> 6.70
CCCCCNC(=O)N1C(c2ccc(OC)c(F)c2)COCC1(C)C (stereo not drawn) [Example 161, 5-(3-Fluoro-4-methoxyphenyl)-3,3-dimethyl-N-pentylmorpholine-4-carboxamide]	> 6.70
COc1ccc(C2COCC(C)(C)N2C(=O)NCCc2ccc(F)cc2)cc1 (stereo not drawn) [Example 148, N-[2-(4-Fluorophenyl)ethyl]-5-(4-methoxyphenyl)-3,3-dimethylmorpholine-4-carboxamide]	> 6.70
C[C@@H]1CN(C(=O)NCCCCc2ccccc2)[C@@H](C)CN1C1CC1 [Example 113, (2S,5R)-4-Cyclopropyl-2,5-dimethyl-N-(4-phenylbutyl)piperazine-1-carboxamide]	6.00 to 6.70
CC1(C)CCC(N2CCCCC2)CN1C(=O)NCCCCc1ccccc1 (stereo not drawn) [Example 99, 2,2-Dimethyl-N-(4-phenylbutyl)-5-(1-piperidyl)piperidine-1-carboxamide]	> 6.70
CC1C(c2ccccc2)CCCN1C(=O)NCCCCc1ccccc1 (mixture of isomers) [Example 81, 2-Methyl-3-phenyl-N-(4-phenylbutyl)piperidine-1-carboxamide]	6.00 to 6.70
CC1(C)CC(N2CCCCC2c2ccccc2)CCN1C(=O)NCCCCc1ccccc1 (mixture of isomers) [Example 91, 2,2-Dimethyl-N-(4-phenylbutyl)-4-(2-phenyl-1-piperidyl)piperidine-1-carboxamide]	< 6.00
CC1CCC(c2ccccc2)CN1C(=O)NCCCCc1ccccc1 (mixture of isomers) [Example 80, 2-Methyl-5-phenyl-N-(4-phenylbutyl)piperidine-1-carboxamide]	> 6.70

Further lines, results first:

pIC50	Structure (SMILES)
6.00 to 6.70	CCCCCNC(=O)N1[C@H](C)COC[C@@H]1c1ccc(F)cc1 [Example 142, (3S,5R)-3-(4-Fluorophenyl)-5-methyl-N-pentylmorpholine-4-carboxamide]
6.00 to 6.70	CCCCCNC(=O)N1CCC(N2CCCCC2)CC1C (stereo not drawn) [Example 95, 2-Methyl-N-pentyl-4-(1-piperidyl)piperidine-1-carboxamide]
> 6.70	CCCCCNC(=O)N1CC(c2ccccc2)C(N2CCCCC2)CC1(C)C (stereo not drawn) [Example 131, 2,2-Dimethyl-N-pentyl-5-phenyl-4-(1-piperidyl)piperidine-1-carboxamide]
< 6.00	CCCCCNC(=O)N1CCN(C2CC2)C[C@@H]1C(C)C [Example 118, (2S)-4-Cyclopropyl-2-isopropyl-N-pentylpiperazine-1-carboxamide]
< 6.00	CC(C)[C@H]1CN(C2CC2)CCN1C(=O)NCCCCc1ccccc1 [Example 117, (2S)-4-Cyclopropyl-2-isopropyl-N-(4-phenylbutyl)piperazine-1-carboxamide]
> 6.70	CC1(C)COCC(c2ccccc2)N1C(=O)NCCCCc1ccccc1 (stereo not drawn) [Example 133, 3,3-Dimethyl-5-phenyl-N-(4-phenylbutyl)morpholine-4-carboxamide]
> 6.70	CN1CC(C)(C)N(C(=O)NCCCCc2ccccc2)CC1c1ccccc1 (stereo not drawn) [Example 166, 2,2,4-Trimethyl-5-phenyl-N-(4-phenylbutyl)piperazine-1-carboxamide]
6.00 to 6.70	CC1C(N2CCCCC2)CCCN1C(=O)NCCCCc1ccccc1 (stereo not drawn) [Example 101, 2-Methyl-N-(4-phenylbutyl)-3-(1-piperidyl)piperidine-1-carboxamide]
> 6.70	CC1(C)C(=O)N(c2ccccc2)CCN1C(=O)NCCCCc1ccccc1 [Example 106, 2,2-Dimethyl-3-oxo-4-phenyl-N-(4-phenylbutyl)piperazine-1-carboxamide]
6.00 to 6.70	CC1(C)COCC(c2ccccc2)N1C(=O)NC1CCCCC1 (stereo not drawn) [Example 135, N-Cyclohexyl-3,3-dimethyl-5-phenylmorpholine-4-carboxamide]
> 6.70	CCCCCNC(=O)N1CCC(N2CCCCC2)C[C@H]1C (stereo partly drawn) [Example 96, (2R)-Methyl-N-pentyl-4-(1-piperidyl)piperidine-1-carboxamide hydrochloride salt]
> 6.70	CN1CCN(C2CCN(C(=O)NCCCCc3ccccc3)C(C)(C)C2)CC1 (stereo not drawn) [Example 87, 2,2-Dimethyl-4-(4-methylpiperazin-1-yl)-N-(4-phenylbutyl)piperidine-1-carboxamide dihydrochloride]
< 6.00	CC1(C)CC(N2CCCC(c3ccccc3)C2)CCN1C(=O)NCCCCc1ccccc1 (mixture of isomers) [Example 92, 2,2-Dimethyl-N-(4-phenylbutyl)-4-(3-phenyl-1-piperidyl)piperidine-1-carboxamide]
> 6.70	COc1ccc(C2COCC(C)(C)N2C(=O)NCCC2CC2)cc1 (stereo not drawn) [Example 146, N-(2-Cyclopropylethyl)-5-(4-methoxyphenyl)-3,3-dimethylmorpholine-4-carboxamide]
> 6.70	CCCCCNC(=O)N1C(c2ccc(OC)nc2)COCC1(C)C (stereo not drawn) [Example 159, 5-(6-Methoxy-3-pyridyl)-3,3-dimethyl-N-pentylmorpholine-4-carboxamide]
> 6.70	COc1ccc(C2COCC(C)(C)N2C(=O)NCC2CCCCC2)cc1 (stereo not drawn) [Example 150, N-(Cyclohexylmethyl)-5-(4-methoxyphenyl)-3,3-dimethylmorpholine-4-carboxamide]
> 6.70	CCCCCNC(=O)N1C(c2ccc(OC)cc2F)COCC1(C)C (stereo not drawn) [Example 160, 5-(2-Fluoro-4-methoxyphenyl)-3,3-dimethyl-N-pentylmorpholine-4-carboxamide]
